From article PMC6225165, “Design and Synthesis of Novel Dehydroepiandrosterone Analogues as Potent Antiproliferative Agents” (Molecules : A Journal of Synthetic Chemistry and Natural …, 2018) come the findings set out here.

Usually IC50 stands for the concentration at which inhibition is half-maximal. The inhibition is how much of the control response was suppressed.

For one assay, the system named is HepG-2. As to the kind of experiment: MTT antiproliferative assay, HepG-2. The assay is classed as cell-based, human. The note with it: 48 h, MTT; for inhibition at 100 µM: Homo sapiens, HepG2, read-out: % Growth Inhibition at 100 μM HepG-2. The protocol:
(§1) The antiproliferative activity of the title compounds against the panel of six different human cancer cell lines, viz. lung (A549), cervix (HeLa), liver (HepG-2), liver (BEL7402), colorectal (HCT116), and breast (MCF-7) cell lines, was evaluated using a standard MTT-based colorimetric assay. All cell lines were obtained from the Key Laboratory of Natural Resources and Functional Molecules of the Changbai Mountain (Yanbian University) and maintained in Dulbecco’s modified Eagle’s medium (DMEM) and RPMI Media 1640 (RPMI1640), supplemented with 10% foetal bovine serum (FBS) at 37 °C in a humidified atmosphere containing 5% CO2.
(§2) Cells were plated in 96-well plates at appropriate densities to ensure exponential growth throughout the experimental period (9 × 10^3 cells per well), and then allowed to adhere for 24 h. Cells were then treated for 48 h with each compound. After 48 h of incubation, 10 μL of MTT solution were added to each well to a final concentration of 2 mg·mL^−1. Plates were then incubated for a further 4 h. After incubation, the MTT solution was removed and 150 μL of DMSO were added to each well for coloration. The plates were shaken vigorously for 10 min at room temperature to ensure complete solubilisation. The optometric density (OD) was read on a microplate reader (EL × 800, BioTek, Highland Park, Winooski, VT, USA) at 492 nm, and the data were subsequently analysed. The percentage of cell growth inhibition was calculated from the following equation:Inhibitory rate (%) = [1 − (ODtreated − ODblank)/(ODcontrol − ODblank)] × 100.
(§3) To obtain the antiproliferative activity of compounds 2a–2w, the compounds were selected in the same way with four serial concentrations (1, 10, 50 and 100 μM) of those compounds. The optometric density (OD) reading was then used to calculate the IC50.
Background: Formazan colour is commonly taken as a measure of viable cells.

A further assay concerns Hela. As to the kind of experiment: MTT antiproliferative assay, Hela. As to conditions: 48 h, MTT; for inhibition at 100 µM: Homo sapiens, read-out: % Growth Inhibition at 100 μM Hela. The assay is classed as cell-based, human. The protocol: as §1, §2, §3
A further assay has as its system BEL7402. Nature of the assay: MTT antiproliferative assay, BEL7402. The assay is classed as cell-based, human. As to conditions: 48 h, MTT; for inhibition at 100 µM: Homo sapiens, Bel-7402, read-out: % Growth Inhibition at 100 μM BEL7402. The protocol:
as §1, §2, §3

In the next assay the test system is MCF-7. Nature of the assay: MTT antiproliferative assay, MCF-7. The format is cell-based, human. The note with it: 48 h, MTT; for inhibition at 100 µM: Homo sapiens, MCF7, read-out: % Growth Inhibition at 100 μM MCF-7. The protocol: as §1, §2, §3
For assay [1], the system named is human normal liver (L02) cells. Nature of the assay: MTT assay on normal cell line L02. The assay is classed as cell-based. The note with it: 48 h, MTT; for % Growth Inhibition at 100 μM L02 / inhibition at 100 µM: normal cells; for IC50: normal cell line; for inhibition at 100 µM: Homo sapiens, L02, read-out: % Growth Inhibition at 100 μM L02.
For a further assay, the system named is A549. As to the kind of experiment: MTT antiproliferative assay, A549. As to conditions: 48 h, MTT; for inhibition at 100 µM: Homo sapiens, A549, read-out: % Growth Inhibition at 100 μM A549. The assay is classed as cell-based, human. How it is done:
as §1, §2, §3

Another assay concerns HCT116. Nature of the assay: MTT antiproliferative assay, HCT116. The format is cell-based, human. The note with it: 48 h, MTT; for inhibition at 100 µM: Homo sapiens, HCT-116, read-out: % Growth Inhibition at 100 μM HCT116. The protocol: as §1, §2, §3

Turning to `COc1cccc(-n2cc(/C=C3\CC4C5CC=C6CC(O)CCC6(C)C5CCC4(C)C3=O)nn2)c1` (stereo not drawn) [Compound 2r, (E)-3-hydroxy-16-((1-(3-methoxyphenyl)-1H-1,2,3-triazol-4-yl)methylene)-10,13-dimethyl-1,3,4,7,8,9,10,11,12,13,15,16-dodecahydro-2H-cyclopenta[a]phenan-thren-17(14H)-one], in the assay with HepG-2, the “% Growth Inhibition at 100 μM HepG-2” value is on record as “NA (NA: antiproliferative activity <5%)”. Also, in the assay with Hela, the “% Growth Inhibition at 100 μM Hela” value is listed as “NA (NA: antiproliferative activity <5%)”. The “% Growth Inhibition at 100 μM BEL7402” value in the assay on BEL7402 is listed as “NA (NA: antiproliferative activity <5%)”. The “% Growth Inhibition at 100 μM MCF-7” value with MCF-7 was “NA (NA: antiproliferative activity <5%)”. Moreover, the “% Growth Inhibition at 100 μM L02” value in assay [1] was determined as 16.9%. For the same compound, the “% Growth Inhibition at 100 μM A549” value in the assay with A549 is recorded as “NA (NA: antiproliferative activity <5%)”. For the same compound, the “% Growth Inhibition at 100 μM HCT116” value in the assay on HCT116 was “NA (NA: antiproliferative activity <5%)”.
For `COc1ccc(-n2cc(/C=C3\CC4C5CC=C6CC(O)CCC6(C)C5CCC4(C)C3=O)nn2)cc1` (stereo not drawn) [Compound 2s, (E)-3-hydroxy-16-((1-(4-methoxyphenyl)-1H-1,2,3-triazol-4-yl)methylene)-10,13-dimethyl-1,3,4,7,8,9,10,11,12,13,15,16-dodecahydro-2H-cyclopenta[a]phenan-thren-17(14H)-one], in the assay on HepG-2, the “% Growth Inhibition at 100 μM HepG-2” value came out at 42.3% and the IC50 is over 100 µM. Moreover, in the assay on Hela, the “% Growth Inhibition at 100 μM Hela” value turned out to be 14.9% and the IC50 is over 100 µM. Also, in the assay with BEL7402, the “% Growth Inhibition at 100 μM BEL7402” value worked out at 38.4% and the half-inhibitory concentration (IC50) was over 100 µM. Besides, in the assay with MCF-7, the “% Growth Inhibition at 100 μM MCF-7” value is recorded as 58.1% and it took 69.4 µM to reach half-maximal inhibition (IC50). For the same compound, in assay [1], the “% Growth Inhibition at 100 μM L02” value is 58.5% and the IC50 stood at 81.1 µM. For the same compound, in the assay on A549, the “% Growth Inhibition at 100 μM A549” value stood at 44.0% and the IC50 is over 100 µM. Moreover, in the assay with HCT116, the “% Growth Inhibition at 100 μM HCT116” value is 70.7% and the IC50 amounted to 56.9 µM.
Turning to `COc1ccc(-n2cc(/C=C3\CC4C5CC=C6CC(O)CCC6(C)C5CCC4(C)C3=O)nn2)cc1OC` (stereo not drawn) [Compound 2t, (E)-16-((1-(3,4-dimethoxyphenyl)-1H-1,2,3-triazol-4-yl)methylene)-3-hydroxy-10,13-dimethyl-1,3,4,7,8,9,10,11,12,13,15,16-dodecahydro-2H-cyclopenta[a]phenan-thren-17(14H)-one], the “% Growth Inhibition at 100 μM HepG-2” value with HepG-2 is listed as “NA (NA: antiproliferative activity <5%)”. Also, the “% Growth Inhibition at 100 μM Hela” value in the assay with Hela is recorded as “NA (NA: antiproliferative activity <5%)”. In addition, the “% Growth Inhibition at 100 μM BEL7402” value in the assay with BEL7402 is “NA (NA: antiproliferative activity <5%)”. Further, the “% Growth Inhibition at 100 μM MCF-7” value in the assay on MCF-7 is on record as “NA (NA: antiproliferative activity <5%)”. The “% Growth Inhibition at 100 μM L02” value in assay [1] was determined as 9.4%. For the same compound, the “% Growth Inhibition at 100 μM A549” value in the assay with A549 is “NA (NA: antiproliferative activity <5%)”. In addition, the “% Growth Inhibition at 100 μM HCT116” value with HCT116 was “NA (NA: antiproliferative activity <5%)”.
On to `COc1cc(-n2cc(/C=C3\CC4C5CC=C6CC(O)CCC6(C)C5CCC4(C)C3=O)nn2)cc(OC)c1OC` (stereo not drawn) [Compound 2u, (E)-3-hydroxy-10,13-dimethyl-16-((1-(3,4,5-trimethoxyphenyl)-1H-1,2,3-triazol-4-yl)methylene)-1,3,4,7,8,9,10,11,12,13,15,16-dodecahydro-2H-cyclopenta[a]phenanthren17(14H)-one], for which the inhibition at 100 µM in the assay on HepG-2 is 59.1%; with Hela, 60.5%; in the assay on BEL7402, 51.2%; in the assay with MCF-7, 36.3%; in assay [1], 36.4%; in the assay with A549, 40.3%. Moreover, the inhibition at 100 µM with HCT116 amounted to 59.2%.
On to `CC12CCC3C(CC=C4CC(O)CCC43C)C1C/C(=C\c1cn(-c3ccc([N+](=O)[O-])cc3)nn1)C2=O` (stereo not drawn) [Compound 2v, (E)-3-hydroxy-10,13-dimethyl-16-((1-(4-nitrophenyl)-1H-1,2,3-triazol-4-yl)methylene)1,3,4,7,8,9,10,11,12,13,15,16-dodecahydro-2H-cyclopenta[α]phenan-thren-17(14H)-one], for which the “% Growth Inhibition at 100 μM HepG-2” value in the assay with HepG-2 is given as 12.4%. Moreover, in the assay on Hela, the “% Growth Inhibition at 100 μM Hela” value is given as “NA (NA: antiproliferative activity <5%)”. Also, the “% Growth Inhibition at 100 μM BEL7402” value with BEL7402 is recorded as 13.2%. The “% Growth Inhibition at 100 μM MCF-7” value in the assay with MCF-7 is on record as “NA (NA: antiproliferative activity <5%)”. The “% Growth Inhibition at 100 μM L02” value in assay [1] was 5.5%. The “% Growth Inhibition at 100 μM A549” value in the assay with A549 was “NA (NA: antiproliferative activity <5%)”. Besides, the “% Growth Inhibition at 100 μM HCT116” value in the assay with HCT116 was found to be 10.2%.
In the case of `CC12CCC3C(CC=C4CC(O)CCC43C)C1C/C(=C\c1cn(-c3ccc(C(F)(F)F)cc3)nn1)C2=O` (stereo not drawn) [Compound 2w, (E)-3-hydroxy-10,13-dimethyl-16-((1-(4-(trifluoromethyl)phenyl)-1H-1,2,3-triazol4-y)methylene)-1,3,4,7,8,9,10,11,12,13,15,16-dodecahydro-2H-cyclopenta[α] phenanthren-17(14H)-one], in the assay on HepG-2, the “% Growth Inhibition at 100 μM HepG-2” value is on record as 48.3% and the IC50 is over 100 µM. In addition, in the assay on Hela, the “% Growth Inhibition at 100 μM Hela” value amounted to 44.1% and the IC50 is over 100 µM. In addition, in the assay with BEL7402, the “% Growth Inhibition at 100 μM BEL7402” value was determined as 62.2% and the IC50 worked out at 94 µM. Besides, in the assay with MCF-7, the “% Growth Inhibition at 100 μM MCF-7” value is 41.3% and the IC50 was over 100 µM. Besides, in assay [1], the “% Growth Inhibition at 100 μM L02” value is 57.6% and the IC50 turned out to be 93.7 µM. For the same compound, in the assay with A549, the “% Growth Inhibition at 100 μM A549” value stood at 75.2% and the IC50 amounted to 72.5 µM. In addition, in the assay with HCT116, the “% Growth Inhibition at 100 μM HCT116” value was 75.0% and the IC50 stood at 22.7 µM.
For `C[C@]12CC[C@H](O)CC1=CC[C@@H]1[C@@H]2CC[C@]2(C)C(=O)CC[C@@H]12` [DHEA, Dehydroepiandrosterone], the inhibition at 100 µM in the assay with HepG-2 turned out to be 10.9%; in the assay with Hela it was 15.7%; in the assay on BEL7402 it was 46.5%; with MCF-7 it was 17.1%; in assay [1], 44.6%; with A549 it was 24.8%. Besides, the inhibition at 100 µM in the assay with HCT116 is 47.3%.
